Assay results from patent publication US8207136B2, “Nucleoside compounds and methods of use thereof” (The Board of Trustees of the University of Illinois, priority 2005, dated 2012).

Experiments:
[1] = molecular target: T1, P-TEFb (Cdk9/Cyclin T1) (Homo sapiens, UniProt P50750); experiment: P-TEFb kinase assay with p53 as substrate; format: biochemical; conditions: different concentrations, 30° C., 30 min
T1 construct: gift from Dr. Nekhai (Howard University)
Description: For P-TEFb kinase assays with p53 as a substrate, purified p53 protein (Protein One) was used. Twenty-five nanograms of p53 protein along with [γ^32P]ATP was used in reactions either in the presence or absence of P-TEFb, with or without the addition of ARC. The reaction was carried out at 30° C. for 30 min. The samples were resolved on an SDS-PAGE and transferred on to a PVDF membrane and exposed to X-ray film to detect phosphorylation of p53.
In order to evaluate this activity, an in vitro kinase assay was performed with purified p53 protein and P-TEFb in the presence of different concentrations of ARC.

[2] = tested on: p53; experiment: Gel shift assay with nuclear extracts and p53 consensus probe; format: cell-based, human
Description: Either purified p53 protein or nuclear extracts were used in the gel shift assays. For preparation of nuclear extracts, cells treated either with DMSO or different agents (doxorubicin, ARC and actinomycin D) were harvested 24 hours later and lysed in hypotonic buffer (10 mM HEPES pH 7.9, 1.5 mM MgCl2, 10 mM KCl, 0.2 mM PMSF, 0.5 mM DTT, 1 mM Na3VO4, 1 mM NaF, 1 mM Aprotinin and 1 mM Leupeptin), nuclei pelleted and treated with high-salt buffer (20 mM HEPES pH 7.9, 20% (v/v) glycerol, 1.5 mM MgCl2, 0.5 M KCl, 0.2 mM EDTA, 0.2 mM PMSF, 0.5 mM DTT, 1 mM Na3VO4, 1 mM NaF, 1 mM Aprotinin and 1 mM Leupeptin). Nuclear extracts (10 μg) or purified p53 protein (100 ng) were incubated with 0.5 ng of p53 consensus double-stranded oligos (5′-TACAGAACATGTCTAAGCATGCTGGGGACT-3′; Santa Cruz Biotechnology) that were labeled with [γ^32P]ATP. As a control, anti-p53 antibody (PAb421, EMD Biosciences) was used to supershift the p53/DNA complex. The reaction mixtures were resolved on a 4% acrylamide DNA-retardation gel, dried and exposed to X-ray film in the presence of intensifying screen.
Although the effects of ARC were p53-independent, ARC did affect some properties of p53. […] This is in contrast to actinomycin D, which is known to enhance the DNA binding ability of p53 [22]. […] To determine if ARC retains p53 in the cytoplasm, which may lead to decreased binding in the gel shift assays, p53 levels in nuclear lysates were examined.

T1 sequence (P50750 whole entry, species assumed): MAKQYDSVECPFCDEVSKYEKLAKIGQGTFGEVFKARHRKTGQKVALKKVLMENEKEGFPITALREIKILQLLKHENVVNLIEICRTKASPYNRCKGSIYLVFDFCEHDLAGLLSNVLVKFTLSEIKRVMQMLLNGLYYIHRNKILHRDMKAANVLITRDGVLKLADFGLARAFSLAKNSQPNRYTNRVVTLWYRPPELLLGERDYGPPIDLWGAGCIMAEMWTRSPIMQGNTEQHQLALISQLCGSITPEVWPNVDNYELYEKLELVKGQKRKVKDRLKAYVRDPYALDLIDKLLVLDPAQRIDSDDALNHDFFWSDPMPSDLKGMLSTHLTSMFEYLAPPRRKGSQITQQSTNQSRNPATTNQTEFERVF
T1 sequence (O60563 whole entry partner, species assumed): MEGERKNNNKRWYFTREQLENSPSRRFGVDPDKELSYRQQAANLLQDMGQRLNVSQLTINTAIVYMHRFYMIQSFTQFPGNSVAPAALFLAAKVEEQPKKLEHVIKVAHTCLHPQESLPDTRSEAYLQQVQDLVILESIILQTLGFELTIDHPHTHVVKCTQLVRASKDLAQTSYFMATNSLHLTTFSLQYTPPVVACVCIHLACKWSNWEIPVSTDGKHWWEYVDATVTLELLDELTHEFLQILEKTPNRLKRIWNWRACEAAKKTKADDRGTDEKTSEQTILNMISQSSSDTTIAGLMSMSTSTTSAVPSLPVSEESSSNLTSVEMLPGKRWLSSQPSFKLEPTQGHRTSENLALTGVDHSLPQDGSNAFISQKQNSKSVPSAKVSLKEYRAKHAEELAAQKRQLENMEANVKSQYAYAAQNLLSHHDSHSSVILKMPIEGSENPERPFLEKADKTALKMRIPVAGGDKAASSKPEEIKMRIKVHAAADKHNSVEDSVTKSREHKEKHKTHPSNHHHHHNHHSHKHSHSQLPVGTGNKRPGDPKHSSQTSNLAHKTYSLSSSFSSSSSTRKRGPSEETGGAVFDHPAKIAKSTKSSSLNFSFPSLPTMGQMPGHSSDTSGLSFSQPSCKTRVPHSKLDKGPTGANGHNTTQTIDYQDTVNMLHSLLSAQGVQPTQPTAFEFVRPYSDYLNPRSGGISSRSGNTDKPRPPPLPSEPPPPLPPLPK

NNc1c(C(N)=O)c2c(N)ncnc2n1[C@@H]1O[C@H](CO)[C@@H](O)[C@H]1O [ARC, 4-amino-6-hydrazino-7-beta-D-ribofuranosyl-7H-pyrrolo[2,3-d]-pyrimidine-5-carboxamide]
phosphorylation of p53 by P-TEFb [1]: decreased in a dose-dependent manner
DNA binding ability of p53, agent alone ([2]; MCF-7 nuclear extracts): did not influence the DNA binding ability of p53
doxorubicin-induced DNA binding ability of p53 ([2]; nuclear extracts from HCT-116 and MCF-7 cells, with doxorubicin): inhibited the doxorubicin-induced DNA binding ability of p53
